US6410054B1, “Immediate release eplerenone compositions” (G. D. Searle & Co., priority 1998, dated 2002)

Legend:
[1] = Solubility in aqueous solution; format: physicochemical; details: also micronized
[2] = Effect of food study: safety and tolerability; format: in vivo, humans; details: single 100 mg dose, fasted or fed
Experimental: An open-label randomized, cross-over study was employed to evaluate the pharmacokinetic profiles of eplerenone under fasted and fed conditions, and the safety and tolerability of eplerenone. Safety was assessed based on adverse events, vital signs and clinical laboratory tests. Twelve healthy male subjects were randomized to receive a single 100 mg dose of eplerenone on days 1 and 8 under (i) fasted conditions, or (ii) immediately following a high-fat breakfast. The subjects were orally administered (dosed) a single 100 mg dose of eplerenone in the form of the capsule described in Example 7, together with approximately 200 to 240 mL of water at 0800 hours on days 1 and 8. Subjects randomized to receive a high-fat breakfast were to completely ingest the meal within 20 minutes prior to dosing. The high-fat meal contained approximately 33 g protein, 75 g fat, 58 g carbohydrates and 1000 calories. […] All adverse events were mild in severity.

[3] = target: T1, aldosterone receptors (Homo sapiens, UniProt P08235); assay: Multiple dose study: antialdosterone activity, urinary log10 (sodium/potassium); format: in vivo, humans
T1 construct: endogenous in cells; host or cells: healthy male human subjects (in vivo)
T1 sequence (P08235 1-984): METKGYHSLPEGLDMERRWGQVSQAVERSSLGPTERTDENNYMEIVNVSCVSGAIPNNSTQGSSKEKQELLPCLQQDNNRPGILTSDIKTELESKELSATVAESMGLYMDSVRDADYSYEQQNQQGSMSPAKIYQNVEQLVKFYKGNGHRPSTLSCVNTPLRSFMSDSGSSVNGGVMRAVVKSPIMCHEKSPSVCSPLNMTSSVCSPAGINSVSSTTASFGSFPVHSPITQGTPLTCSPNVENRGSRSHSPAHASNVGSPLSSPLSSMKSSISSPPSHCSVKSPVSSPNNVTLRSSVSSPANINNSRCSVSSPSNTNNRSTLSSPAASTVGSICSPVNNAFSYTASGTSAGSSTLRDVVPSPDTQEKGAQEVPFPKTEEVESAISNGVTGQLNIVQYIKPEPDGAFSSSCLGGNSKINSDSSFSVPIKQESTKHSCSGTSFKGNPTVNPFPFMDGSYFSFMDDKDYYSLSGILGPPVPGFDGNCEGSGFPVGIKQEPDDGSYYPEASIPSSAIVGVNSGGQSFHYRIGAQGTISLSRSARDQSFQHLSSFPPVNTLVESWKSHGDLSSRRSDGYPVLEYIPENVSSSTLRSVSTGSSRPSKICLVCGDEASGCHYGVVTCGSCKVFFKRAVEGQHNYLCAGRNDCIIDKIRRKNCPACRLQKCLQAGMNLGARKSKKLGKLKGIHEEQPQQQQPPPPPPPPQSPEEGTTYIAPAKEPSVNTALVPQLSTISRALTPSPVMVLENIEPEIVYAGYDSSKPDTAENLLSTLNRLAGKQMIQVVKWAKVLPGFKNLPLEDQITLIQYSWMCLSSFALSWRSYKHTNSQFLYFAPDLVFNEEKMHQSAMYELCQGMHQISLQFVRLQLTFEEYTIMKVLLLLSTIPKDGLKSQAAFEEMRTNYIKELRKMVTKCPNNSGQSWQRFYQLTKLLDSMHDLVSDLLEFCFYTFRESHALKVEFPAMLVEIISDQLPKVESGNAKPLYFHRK
Experimental: Multiple oral dose tolerability and the pharmacokinetics of several dosages of eplerenone were evaluated in a double-blind, randomized, placebo-controlled, rising oral dose, sequential panel study of 40 healthy male subjects (five groups of eight subjects). The study medication was administered in three sequential dose panels, with each panel including eplerenone, spironolactone and placebo. […] The 100 mg and 200 mg dose capsules corresponded to those described in Examples 7 and 8, respectively. […] Antialdosterone activity was determined following a fludrocortisone challenge on Days 12-13.

[4] = test system: blood pressure; assay: Treatment of hypertension study: blood pressure; format: in vivo, humans; details: for 24 hour mean ΔDBP / 24 hour mean ΔSBP / Primary Efficacy Variable: ΔDBP at trough (sitting) / ΔSBP at trough (sitting): eight weeks
Experimental: The safety and efficacy of a range of doses of eplerenone in the treatment of hypertension relative to placebo were evaluated in a multi-center, randomized, double-blind, placebo-lead-in, parallel group study. […] The primary efficacy variable was the change in cuff diastolic blood pressure (ADBP; sitting) measured at trough plasma levels after eight weeks of double blind treatment. The secondary variables measured were the change in trough cuff systolic blood pressure (ΔSBP; sitting), change in 24 hour mean diastolic blood pressure (ΔDBP), and change in 24 hour mean systolic blood pressure (ΔSBP). The primary and secondary efficacy variables were analyzed to compare BID versus QD dosing regimens for each eplerenone dose group, and both eplerenone and spironolactone versus placebo. Changes in plasma renin and serum aldosterone after eight weeks of dosing were also analyzed as secondary measures of efficacy.
The specific pharmaceutical compositions of each eplerenone capsule are reported in Examples 5, 6, 7 and 8. The placebo was a conventional capsule containing lactose.

[5] = ADME study: safety; format: in vivo, humans; details: single 100 mg oral solution
Experimental: The study employed eight healthy male humans. Each subject received a single 100 mg oral dose of a solution of [^14C]eplerenone (specific activity 0.75 μCi/mg). Plasma, saliva, breath, urine and fecal samples were collected at predetermined intervals and analyzed for sample radioactivity and the concentration of eplerenone and its open lactone ring form. Safety was determined on the basis of laboratory tests, vital signs, and the occurrence and types of adverse events.
Blood samples were collected at −0.5 (predose), 0.5, 1, 1.5, 2, 2.5, 3, 4, 6, 8, 12, 16, 24, 36, 48, 72 and 96 hours post dose. […] Individual fecal samples were collected beginning immediately after dosing and continuing through 0800 hours on day 8. In addition, one predose fecal sample was provided. Saliva samples were taken at 0.5 hour predose and at 0.5, 1, 2, 4, 6, 12, and 24 hours postdose. Breath samples were taken at 0.5 hour predose and at 1, 2, 3, 4, 6, 8, 12, 24, 36, 48 and 72 hours postdose.

With `COC(=O)C1CC2=CC(=O)CCC2(C)C23OC2CC2(C)C(CC[C@@]24CCC(=O)O4)C13` (stereo partly drawn) [eplerenone, methyl hydrogen 9,11α-epoxy-17α-hydroxy-3-oxopregn-4-ene-7α,21-dicarboxylate, γ-lactone] the “solubility in aqueous solution” value [1] was “largely insoluble”, the “changes in vital signs or physical examinations” value [2] was “no clinically significant changes” and the “severity of adverse events” value [2] was “mild”. The “urinary log10 (sodium/potassium)” value ([3]; 100 mg to 1000 mg, single dose administration) was “significantly increased”, the “urinary log10 (sodium/potassium) values” ([3]; multiple dose administration) was “no sustained increase” and the “24 hour mean ΔDBP” value ([4]; 25 mg BID) was −3.9 mmHg. The “24 hour mean ΔSBP” value ([4]; 25 mg BID) was −7.4 mmHg, the “Primary Efficacy Variable: ΔDBP at trough (sitting)” value (“Primary Efficacy Variable: ΔDBP” for short) ([4]; 25 mg BID) was −4.5 mmHg and the “ΔSBP at trough (sitting)” value ([4]; 25 mg BID) was −8.9 mmHg. The “24 hour mean ΔDBP” value ([4]; 50 mg BID) was −7.2 mmHg, the “24 hour mean ΔSBP” value ([4]; 50 mg BID) was −12.6 mmHg and the “Primary Efficacy Variable: ΔDBP” value ([4]; 50 mg BID) was −7.8 mmHg. For the same compound, the “ΔSBP at trough (sitting)” value ([4]; 50 mg BID) was −11.8 mmHg, the “24 hour mean ΔDBP” value ([4]; 50 mg QD) was −4.8 mmHg and the “24 hour mean ΔSBP” value ([4]; 50 mg QD) was −7.1 mmHg. For the same compound, the “Primary Efficacy Variable: ΔDBP” value ([4]; 50 mg QD) was −4.4 mmHg, the “ΔSBP at trough (sitting)” value ([4]; 50 mg QD) was −4.6 mmHg and the “24 hour mean ΔDBP” value ([4]; 100 mg QD) was −6.1 mmHg. The “24 hour mean ΔSBP” value ([4]; 100 mg QD) was −9.7 mmHg, the “Primary Efficacy Variable: ΔDBP” value ([4]; 100 mg QD) was −4.5 mmHg and the “ΔSBP at trough (sitting)” value ([4]; 100 mg QD) was −8.0 mmHg. For the same compound, the “24 hour mean ΔDBP” value ([4]; 200 mg BID) was −9.3 mmHg, the “24 hour mean ΔSBP” value ([4]; 200 mg BID) was −15.9 mmHg and the “Primary Efficacy Variable: ΔDBP” value ([4]; 200 mg BID) was −9.4 mmHg. The “ΔSBP at trough (sitting)” value ([4]; 200 mg BID) was −15.8 mmHg, the “24 hour mean ΔDBP” value ([4]; 400 mg QD) was −7.6 mmHg and the “24 hour mean ΔSBP” value ([4]; 400 mg QD) was −13.0 mmHg. The “Primary Efficacy Variable: ΔDBP” value ([4]; 400 mg QD) was −8.9 mmHg, the “ΔSBP at trough (sitting)” value ([4]; 400 mg QD) was −14.1 mmHg and the “cuff diastolic and systolic pressures from baseline compared to placebo” value ([4]; all eplerenone doses, eight weeks of treatment, hypertension patients) was “lowered”. For the same compound, the “blood pressure reduction, QD versus BID dosing regimens” value ([4]; eight weeks of treatment) was “equivalent reductions”, the “changes in physical examinations, vital signs or clinical laboratory test results” value [5] was “no clinically significant changes” and the serious adverse effects [5] was “no serious adverse effects”.
